Data: patent publication EP1530462B1, “1-PHENYL-2-DIMETHYLAMINOMETHYL CYCLOHEXANE COMPOUNDS USED FOR THE THERAPY OF DEPRESSIVE SYMPTOMS, PAIN, AND INCONTINENCE” (priority 2002, dated 2004)

System: Maus
Test: Tail Suspension Test in the mouse
Type: in vivo
Text: Der "Tail Suspension Test" detektiert antidepressive und anxiolytische Aktivität und folgt der Methode von Porsolt et al. (Porsolt R.D., Bertin A., Jalfre M., Behaviourial despair in mice: a primary screening test for antidepressants. Arch. Int. Pharmacodyn. Ther., 229, 327-336, 1977) und Stéru et al. (Stéru L., .Chermat R., Thierry B, Simon P. The Tail Suspension Test: a new method for screening antidepressants in mice. Psychopharmacology, 85, 367-370, 1985). Nagetiere, die man am Schwanz herabhängen läßt, werden schnell immobil. Antidepressiva verringern die Dauer der Immobilität, während Tranquilantien die Dauer der Immobilität verlängern. Das Verhalten der Tiere wurde über 6 Minuten beobachtet, vorzugsweise mit einem computerisierten Gerät (Itemac-TST) entwickelt von Stéru et al. (1985) (s.o.). Mehrere Mäuse wurden parallel untersucht und die Immobilitätsdauer bestimmt. Dieser Parameter ist analog zu dem im "behavioral despair"-Test (Stéru L., Chermat R., Thierry B., Mico J.A., Lenègre A., Stéru M., Simon P. Porsolt R.D., The automated Tail Suspension Test: a computerized device which differentiates psychotropic drugs. Prog. Neuropsychopharmacol. Exp. Psychiatry, 11, 659-671, 1987) verwendeten. 10-20 Mäuse wurden pro Gruppe untersucht. […]. In diesem Verhaltensmodell führen Antidepressiva wie auch in anderen Verhaltensmodellen zu einer Verkürzung der Immobilitätsphase, während Opioide wie Morphin die Immobilitätsphase verlängern. Beim Vorhandensein beider Wirkkomponenten überlagern sich beide Effekte, so daß nur noch eine geringe Motilitätsveränderung resultiert. Das wurde dadurch aufgehoben, daß die Opiatkomponente durch Vorbehandlung mit Naloxon weggeblockt wurde. Nach der Naloxonvorbehandlung trat die stimulierende Wirkung von (1R,2R)-3-(2-Dimethylaminomethyl-cyclohexyl)-phenol, die ohne Vorbehandlung nur gering war, deutlich in Erscheinung. Darum ist die Substanz, insbesondere in Kombination mit einer Schmerztherapie sehr geeignet. Die Ergebnisse dieser Untersuchungen zusammen mit Referenzsubstanzen sind in der Tabelle 2 zusammengefaßt. Tabelle 2: Wirkung von (1R,2R)-3-(2-Dimethylaminomethyl-cyclohexyl)-phenol, Imipramin und Morphin in "Tail Suspension" Test an der Maus (10 - 20 Tiere/Gruppe)

[1] = 31,6 mg/kg i.p., 30 min before test

Row | SMILES | Imobilitätsdauer % Änderung gegenüber der Lösungsmittelkontrolle (1,0 mg/kg i.v. alone) [%] | Imobilitätsdauer % Änderung gegenüber der Lösungsmittelkontrolle [1] [%] | Imobilitätsdauer % Änderung gegenüber der Lösungsmittelkontrolle (4,64 mg/kg i.p., 30 min before test) | Imobilitätsdauer % Änderung gegenüber der Lösungsmittelkontrolle (10,0 mg/kg i.p., 30 min before test) | Imobilitätsdauer % Änderung gegenüber der Lösungsmittelkontrolle (21,5 mg/kg i.p. + 1,0 mg/kg i.v. Naloxon (pretreatment)) [%] | Imobilitätsdauer % Änderung gegenüber der Lösungsmittelkontrolle (21,5 mg/kg i.p., 30 min before test) | Imobilitätsdauer % Änderung gegenüber der Lösungsmittelkontrolle (31,6 mg/kg i.p. + 1,0 mg/kg i.v. Naloxon (pretreatment)) [%]
1 | C=CCN1CC[C@]23c4c5ccc(O)c4O[C@H]2C(=O)CC[C@@]3(O)[C@H]1C5 [Naloxon, reference compound] | -15 | – | – | – | – | – | –
2 | CN(C)CCCN1c2ccccc2CCc2ccccc21 [Imipramin, reference compound] | – | -61 | – | – | – | – | –
3 | CN(C)C[C@@H]1CCCC[C@H]1c1cccc(O)c1 [(1R,2R)-3-(2-Dimethylaminomethyl-cyclohexyl)-phenol] | – | -13 | +6% | +12% | -90 | +9% | -85
